The results in this text go back to patent US20230381117A1, “ANTI-OBESITY POTENTIAL OF BISDEMETHOXYCURCUMIN COMPOSITIONS” (SAMI-SABINSA GROUP LIMITED, priority 2020, published 2023).

Like-named read-outs stand apart in the source and are kept apart here.

Data set [1] relates to Mouse 3T3-L1 pre-adipocytes. The experiment in a line: Adipogenesis inhibition, lipid accumulation by Oil red O staining in cultured 3T3L1. In kind it is cell-based. How it is done: Stock was diluted 1000 times in DMEM to get 10 μg/ml final concentration and serially diluted. Insulin (Hi Media) was bought as a solution at a concentration of 20 mg/ml. This was diluted to 1 μg/ml in DMEM. IBMX (Sigma)—Stock of 5 mM was prepared in DMEM, and diluted 10 times to be used at a final concentration of 0.5 mM. Dexamethasone (Sigma)—A stock of 10 μM was prepared in DMEM and diluted 40 times to get a final concentration of 0.25 μM. Mouse 3T3-L1 pre-adipocytes were cultured in DMEM media containing 25 mM glucose, 10% heat-inactivated new born calf serum (NBCS) and antibiotics at 37° C. and 5% CO2. When the cells were 70-80% confluent, they were trypsinized, washed and seeded in 48 well plates at a density of 3×10^4 cells per well. […] After differentiation for two days, The media was replaced with DMEM containing insulin (1 μg/mL) and different concentrations of test ingredients on alternate days until the cells were processed after 3rd progression. Untreated cells grown in differentiation media and undifferentiated cells grown in NBCS media were taken as adipogenesis positive and negative controls for the experiment. Quantification of triglycerides accumulated in adipocytes was done by Oil red O staining.

For data set [2], the system named is high fat diet induced obesity in C57 mice. The experiment in a line: High fat diet induced obesity in C57 mice. In kind it is in vivo, C57/BL6 mice. As to conditions: high fat diet fed mice, 50 mg/kgbw; FIG. 6. On the procedure: Animals-C57/BL6 mice, 6-8 weeks of age and 8 animals/Group (4 Male and 4 Female) were used for the study. […] The temperature and relative humidity was recorded once daily. Feed: […] Water was provided along with High Fat Diet to the animals throughout the acclimatization and experimental period. Water from water filter cum purifier was provided in animal feeding bottle with stainless steel sipper tubes. The design of the study groups is depicted in table 4. [table] Body weight of the animals was recorded in all the days of experimental period. At the end of the experimental period, the animals were sacrificed by cervical dislocation. Blood was collected and Serum was separated by centrifugation and used for the analysis of biochemical parameters. […] The following parameters were measured in the above groups: • Measurement of Body weight: Determination of Organ Weight13 Liver, Visceral adipose tissue (VAT) and subcutaneous adipose tissue (SAT) • Estimation of Cholesterol (Zak et al., (2009) A new method for the determination of serum cholesterol. J Clin Endocrinol Metab., 94(7), 2215-2220) • Estimation of Triglycerides (Foster L. B and Dunn R. T. (1973) Stable reagents for determination of serum triglycerides by a colorimetric Hantzsch condensation method. Clin Chem, 196, 338-340). • Estimation of HDL Cholesterol (Burstein et al., (1970). Determination of HDL cholesterol. […]

Setting [3] is: Table 2B, 1.5625 μg/ml, 3T3-L1, Oil red O, read-out: Adipogenesis inhibition.
Where [4] appears, read: Table 2B, 3.125 μg/ml, 3T3-L1, Oil red O, read-out: Adipogenesis inhibition.
Setting [5] is: 3T3-L1, read-out: Adipogenesis inhibition.

As a reminder, the inhibition is how much of the control response was suppressed. Regarding `O=C(/C=C/c1ccc(O)cc1)CC(=O)/C=C/c1ccc(O)cc1` [BDMC, bisdemethoxycurcumin], the inhibition at 1.5625 µg/mL in data set [1] (setting [3]) was 20.2%. The inhibition at 3.125 µg/mL in data set [1] (setting [4]) turned out to be 16.2%. In addition, in data set [2], the “Adverse effect on weight of the liver / critical organs” value is on record as “does not induce any adverse effects”.
Turning to `COc1cc(/C=C/C(=O)CC(=O)/C=C/c2ccc(O)c(OC)c2)ccc1O` [Curcumin, curcumin], in data set [1] (setting [3]), the inhibition at 1.5625 µg/mL is 11.6%. The inhibition at 3.125 µg/mL in data set [1] (setting [4]) came to 11.1%.
Turning to `COc1cc(/C=C/C(O)=C/C(=O)/C=C/c2ccc(O)cc2)ccc1O` [DMC, demethoxycurcumin], in data set [1] (setting [5]), the inhibition at 1.5625 µg/mL was found to be 21% and the inhibition at 3.125 µg/mL worked out at 19.4%.
